Experimental data reported in the supplement of paper PMC10307832.

Key:
Assay in all cases: relative viability (nuclei count vs DMSO), 5 days (fraction); higher = more cells survive
NCI-H1755 = tested on: NCI-H1755
Outline: (§1)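 Lung cancer cell lines, seeded in 1536-well plates, were treated the following day by pin tool with a single drug or with five library-drug doses (not always all listed) in √10 steps on top of a fixed anchor-drug dose. Cells were fixed and nuclei stained in one step after 5 days, and nuclei were counted. Relative viability is the nuclei count for treated wells divided by that for vehicle wells, reported as medians of duplicate plates.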

H3255 = tested on: H3255
Outline: as §1

NCI-H441 = tested on: NCI-H441
Outline: as §1

NCI-H23 = tested on: NCI-H23
Outline: as §1

SW 900 = tested on: SW 900
Outline: as §1

NCI-H1792 = tested on: NCI-H1792
Outline: as §1

NCI-H520 = tested on: NCI-H520
Outline: as §1

NCI-H1563 = tested on: NCI-H1563
Outline: as §1

COR-L 105 = tested on: COR-L 105
Outline: as §1

PC-3 [JPC-3] = tested on: PC-3 [JPC-3]
Outline: as §1

LOU-NH91 = tested on: LOU-NH91
Outline: as §1

NCI-H596 = tested on: NCI-H596
Outline: as §1

NCI-H2170 = tested on: NCI-H2170
Outline: as §1

HCC-366 = tested on: HCC-366
Outline: as §1

NCI-H1734 = tested on: NCI-H1734
Outline: as §1

EMC-BAC-2 = tested on: EMC-BAC-2
Outline: as §1

SK-MES-1 = tested on: SK-MES-1
Outline: as §1

ChaGo-K-1 = tested on: ChaGo-K-1
Outline: as §1

NCI-H1975 = tested on: NCI-H1975
Outline: as §1

NCI-H1666 = tested on: NCI-H1666
Outline: as §1

A-427 = tested on: A-427
Outline: as §1

LK-2 = tested on: LK-2
Outline: as §1

EKVX = tested on: EKVX
Outline: as §1

NCI-H1944 = tested on: NCI-H1944
Outline: as §1

Which results are given for `CC(C)Oc1cc(Nc2nc(N[C@@H](C)c3ccc(F)cn3)ncc2Cl)n[nH]1` [AZ23] + Cc1nc(Nc2ncc(C(=O)Nc3c(C)cccc3Cl)s2)cc(N2CCN(CCO)CC2)n1 [Dasatinib] (partner 0.075 µM)?
relative viability (NCI-H1755; first compound 0.01 µM): 0.456; relative viability (NCI-H1755; first compound 0.03162 µM): 0.488; relative viability (NCI-H1755; first compound 0.3162 µM): 0.357; relative viability (H3255; first compound 0.01 µM): 0.364; relative viability (H3255; first compound 0.03162 µM): 0.66; relative viability (H3255; first compound 0.3162 µM): 0.418; relative viability (NCI-H441; first compound 0.01 µM): 0.683; relative viability (NCI-H441; first compound 0.03162 µM): 0.745; relative viability (NCI-H441; first compound 0.3162 µM): 0.699; relative viability (NCI-H23; first compound 0.03162 µM): 0.883; relative viability (NCI-H23; first compound 0.3162 µM): 0.761; relative viability (SW 900; first compound 0.01 µM): 0.385; relative viability (SW 900; first compound 0.03162 µM): 0.593; relative viability (SW 900; first compound 0.3162 µM): 0.541; relative viability (NCI-H1792; first compound 0.01 µM): 0.804; relative viability (NCI-H1792; first compound 0.03162 µM): 1.16; relative viability (NCI-H1792; first compound 0.3162 µM): 0.672; relative viability (NCI-H520; first compound 0.01 µM): 0.194; relative viability (NCI-H520; first compound 0.03162 µM): 0.24; relative viability (NCI-H520; first compound 0.3162 µM): 0.162; relative viability (NCI-H1563; first compound 0.01 µM): 0.491; relative viability (NCI-H1563; first compound 0.03162 µM): 0.533; relative viability (NCI-H1563; first compound 0.3162 µM): 0.469; relative viability (COR-L 105; first compound 0.01 µM): 0.339; relative viability (COR-L 105; first compound 0.03162 µM): 0.374; relative viability (COR-L 105; first compound 0.3162 µM): 0.341; relative viability (PC-3 [JPC-3]; first compound 0.01 µM): 1.13; relative viability (PC-3 [JPC-3]; first compound 0.03162 µM): 1.08; relative viability (PC-3 [JPC-3]; first compound 0.3162 µM): 1.01; relative viability (LOU-NH91; first compound 0.01 µM): 0.565; relative viability (LOU-NH91; first compound 0.03162 µM): 0.589; relative viability (LOU-NH91; first compound 0.3162 µM): 0.551; relative viability (NCI-H596; first compound 0.01 µM): 0.52; relative viability (NCI-H596; first compound 0.03162 µM): 0.616; relative viability (NCI-H596; first compound 0.3162 µM): 0.557; relative viability (NCI-H2170; first compound 0.01 µM): 0.498; relative viability (NCI-H2170; first compound 0.03162 µM): 0.618; relative viability (NCI-H2170; first compound 0.3162 µM): 0.598; relative viability (HCC-366; first compound 0.01 µM): 0.58; relative viability (HCC-366; first compound 0.03162 µM): 0.705; relative viability (HCC-366; first compound 0.3162 µM): 0.79; relative viability (NCI-H1734; first compound 0.01 µM): 0.445; relative viability (NCI-H1734; first compound 0.03162 µM): 0.454; relative viability (NCI-H1734; first compound 0.3162 µM): 0.448; relative viability (EMC-BAC-2; first compound 0.01 µM): 0.308; relative viability (EMC-BAC-2; first compound 0.03162 µM): 0.381; relative viability (EMC-BAC-2; first compound 0.3162 µM): 0.364; relative viability (SK-MES-1; first compound 0.03162 µM): 0.275; relative viability (SK-MES-1; first compound 0.3162 µM): 0.288; relative viability (ChaGo-K-1; first compound 0.01 µM): 0.687; relative viability (ChaGo-K-1; first compound 0.03162 µM): 0.627; relative viability (ChaGo-K-1; first compound 0.3162 µM): 0.566; relative viability (NCI-H1975; first compound 0.01 µM): 0.453; relative viability (NCI-H1975; first compound 0.03162 µM): 0.405; relative viability (NCI-H1975; first compound 0.3162 µM): 0.326; relative viability (NCI-H1666; first compound 0.01 µM): 0.891; relative viability (NCI-H1666; first compound 0.03162 µM): 0.927; relative viability (NCI-H1666; first compound 0.3162 µM): 0.809; relative viability (A-427; first compound 0.01 µM): 0.701; relative viability (A-427; first compound 0.03162 µM): 0.862; relative viability (A-427; first compound 0.3162 µM): 0.684; relative viability (LK-2; first compound 0.01 µM): 0.262; relative viability (LK-2; first compound 0.03162 µM): 0.286; relative viability (LK-2; first compound 0.3162 µM): 0.335; relative viability (EKVX; first compound 0.01 µM): 0.503; relative viability (EKVX; first compound 0.03162 µM): 0.551; relative viability (EKVX; first compound 0.3162 µM): 0.48; relative viability (NCI-H1944; first compound 0.01 µM): 0.198; relative viability (NCI-H1944; first compound 0.03162 µM): 0.246; relative viability (NCI-H1944; first compound 0.3162 µM): 0.208
